Results: US20170173002A1, “Compositions and Methods for Treating an Infection” (CMPD LICENSING, LLC, priority 2015, published 2017)

Tests used:
Candida species = assay: Expected efficacy of antifungal agents; conditions: expected efficacy against Candida species
[1] = tested on: Klebsiella (Calymmatobacterium) granulomatis; assay: Expected efficacy of antibiotic agents; conditions: expected efficacy against Klebsiella (Calymmatobacterium) granulomatis
Shigella sonnei = assay: Expected efficacy of antibiotic agents; conditions: expected efficacy against Shigella sonnei
Pseudomonas aeruginosa = assay: Expected efficacy of antibiotic agents; conditions: expected efficacy against Pseudomonas aeruginosa
Escherichia coli = assay: Expected efficacy of antibiotic agents; conditions: expected efficacy against Escherichia coli
Shigella boydii = assay: Expected efficacy of antibiotic agents; conditions: expected efficacy against Shigella boydii
Enterobacter cloacae = assay: Expected efficacy of antibiotic agents; conditions: expected efficacy against Enterobacter cloacae
Enterobacter sakazakii = assay: Expected efficacy of antibiotic agents; conditions: expected efficacy against Enterobacter sakazakii
Proteus vulgaris = assay: Expected efficacy of antibiotic agents; conditions: expected efficacy against Proteus vulgaris
Shigella flexneri = assay: Expected efficacy of antibiotic agents; conditions: expected efficacy against Shigella flexneri
Legionella pneumophila = conditions: expected efficacy against Legionella pneumophila
Shigella dysenteriae = assay: Expected efficacy of antibiotic agents; conditions: expected efficacy against Shigella dysenteriae
Bordetella pertussis = assay: Expected efficacy of antibiotic agents; conditions: expected efficacy against Bordetella pertussis
Providencia rettgeri = assay: Expected efficacy of antibiotic agents; conditions: expected efficacy against Providencia rettgeri
Bartonella bacilliformis = assay: Expected efficacy of antibiotic agents; conditions: expected efficacy against Bartonella bacilliformis
Klebsiella pneumoniae = assay: Expected efficacy of antibiotic agents; conditions: expected efficacy against Klebsiella pneumoniae
Klebsiella oxytoca = assay: Expected efficacy of antibiotic agents; conditions: expected efficacy against Klebsiella oxytoca
Haemophilus influenzae = assay: Expected efficacy of antibiotic agents; conditions: expected efficacy against Haemophilus influenzae
Serratia marcescens = assay: Expected efficacy of antibiotic agents; conditions: expected efficacy against Serratia marcescens
Streptococcus pyogenes = assay: Expected efficacy of antibiotic agents; conditions: expected efficacy against Streptococcus pyogenes
Vibrio cholerae = assay: Expected efficacy of antibiotic agents; conditions: expected efficacy against Vibrio cholerae
Rickettsiae = conditions: expected efficacy against Rickettsiae
[2] = tested on: Staphylococcus aureus (MSSA); assay: Expected efficacy of antibiotic agents; conditions: expected efficacy against Staphylococcus aureus (MSSA)
[3] = tested on: Corynebacterium urealyticum; assay: Expected efficacy of antibiotic agents; conditions: expected efficacy against Corynebacterium urealyticum
Salmonella typhi = assay: Expected efficacy of antibiotic agents; conditions: expected efficacy against Salmonella typhi
Acinetobacter lwoffii = assay: Expected efficacy of antibiotic agents; conditions: expected efficacy against Acinetobacter lwoffii
Neisseria gonorrhoeae = assay: Expected efficacy of antibiotic agents; conditions: expected efficacy against Neisseria gonorrhoeae
Citrobacter diversus = assay: Expected efficacy of antibiotic agents; conditions: expected efficacy against Citrobacter diversus
[4] = tested on: Acinetobacter calcoaceticus; assay: Expected efficacy of antibiotic agents; conditions: expected efficacy against Acinetobacter calcoaceticus
Brucella species = conditions: expected efficacy against Brucella species
Neisseria meningitidis = assay: Expected efficacy of antibiotic agents; conditions: expected efficacy against Neisseria meningitidis
Campylobacter jejuni = assay: Expected efficacy of antibiotic agents; conditions: expected efficacy against Campylobacter jejuni
Citrobacter freundii = assay: Expected efficacy of antibiotic agents; conditions: expected efficacy against Citrobacter freundii
Pseudomonas fluorescens = assay: Expected efficacy of antibiotic agents; conditions: expected efficacy against Pseudomonas fluorescens
Morganella morganii = assay: Expected efficacy of antibiotic agents; conditions: expected efficacy against Morganella morganii
Moraxella catarrhalis = assay: Expected efficacy of antibiotic agents; conditions: expected efficacy against Moraxella catarrhalis
Haemophilus ducreyi = assay: Expected efficacy of antibiotic agents; conditions: expected efficacy against Haemophilus ducreyi
Acinetobacter baumannii = assay: Expected efficacy of antibiotic agents; conditions: expected efficacy against Acinetobacter baumannii
Providencia stuartii = assay: Expected efficacy of antibiotic agents; conditions: expected efficacy against Providencia stuartii
Yersinia pestis = conditions: expected efficacy against Yersinia pestis
Enterobacter aerogenes = assay: Expected efficacy of antibiotic agents; conditions: expected efficacy against Enterobacter aerogenes
[5] = tested on: Methicillin resistant staph aureus (MRSA); assay: Expected efficacy of antibiotic agents; conditions: expected efficacy against Methicillin resistant staph aureus (MRSA)
Proteus mirabilis = assay: Expected efficacy of antibiotic agents; conditions: expected efficacy against Proteus mirabilis
Corynebacterium jeikeium = assay: Expected efficacy of antibiotic agents; conditions: expected efficacy against Corynebacterium jeikeium
Clostridium perfringens = conditions: expected efficacy against Clostridium perfringens
Francisella tularensis = conditions: expected efficacy against Francisella tularensis
Enterococcus faecium = assay: Expected efficacy of antibiotic agents; conditions: expected efficacy against Enterococcus faecium
Chlamydia psittaci = conditions: expected efficacy against Chlamydia psittaci
Clostridium difficile = assay: Expected efficacy of antibiotic agents; conditions: expected efficacy against Clostridium difficile
Mycoplasma pneumoniae = assay: Expected efficacy of antibiotic agents; conditions: expected efficacy against Mycoplasma pneumoniae
Bacteroides fragilis = assay: Expected efficacy of antibiotic agents; conditions: expected efficacy against Bacteroides fragilis
Enterococcus faecalis = assay: Expected efficacy of antibiotic agents; conditions: expected efficacy against Enterococcus faecalis
Chlamydia pneumoniae = assay: Expected efficacy of antibiotic agents; conditions: expected efficacy against Chlamydia pneumoniae
Streptococcus pneumoniae = assay: Expected efficacy of antibiotic agents; conditions: expected efficacy against Streptococcus pneumoniae
Chlamydia trachomatis = assay: Expected efficacy of antibiotic agents; conditions: expected efficacy against Chlamydia trachomatis
Streptococcus agalactiae = assay: Expected efficacy of antibiotic agents; conditions: expected efficacy against Streptococcus agalactiae
[6] = tested on: Staphylococcus epidermidis; assay: Expected efficacy of antibiotic agents; conditions: expected efficacy against Staphylococcus epidermidis

Structure (SMILES): C[C@@H]1[C@H](O)[C@@H](C)/C=C/C=C/CC/C=C/C=C/C=C/C=C/C(O[C@H]2O[C@H](C)[C@@H](O)[C@H](N)[C@@H]2O)CC2O[C@](O)(CC(O)C(O)CCC(O)CC(O)CC(O)CC(=O)O[C@H]1C)CC(O)C2C(=O)O (stereo partly drawn) [Nystatin, nystatin]
- Efficacy (Candida species): yes

Structure (SMILES): C/C(=C\C(=O)OCCCCCCCCC(=O)O)C[C@@H]1OC[C@H](C[C@@H]2O[C@H]2[C@@H](C)[C@H](C)O)[C@@H](O)[C@H]1O [Bactroban]
- Efficacy [1]: no
- Efficacy (Shigella sonnei): no
- Efficacy (Pseudomonas aeruginosa): no
- Efficacy (Escherichia coli): no
- Efficacy (Shigella boydii): no
- Efficacy (Enterobacter cloacae): no
- Efficacy (Enterobacter sakazakii): no
- Efficacy (Proteus vulgaris): no
- Efficacy (Shigella flexneri): no
- Efficacy (Legionella pneumophila): no
- Efficacy (Shigella dysenteriae): no
- Efficacy (Bordetella pertussis): no
- Efficacy (Providencia rettgeri): no
- Efficacy (Bartonella bacilliformis): no
- Efficacy (Klebsiella pneumoniae): no
- Efficacy (Klebsiella oxytoca): no
- Efficacy (Haemophilus influenzae): no
- Efficacy (Serratia marcescens): no
- Efficacy (Streptococcus pyogenes): yes
- Efficacy (Vibrio cholerae): no
- Efficacy (Rickettsiae): no
- Efficacy [2]: yes
- Efficacy [3]: no
- Efficacy (Salmonella typhi): no
- Efficacy (Acinetobacter lwoffii): no
- Efficacy (Neisseria gonorrhoeae): no
- Efficacy (Citrobacter diversus): no
- Efficacy [4]: no
- Efficacy (Brucella species): no
- Efficacy (Neisseria meningitidis): no
- Efficacy (Campylobacter jejuni): no
- Efficacy (Citrobacter freundii): no
- Efficacy (Pseudomonas fluorescens): no
- Efficacy (Morganella morganii): no
- Efficacy (Moraxella catarrhalis): no
- Efficacy (Haemophilus ducreyi): no
- Efficacy (Acinetobacter baumannii): no
- Efficacy (Providencia stuartii): no
- Efficacy (Yersinia pestis): no
- Efficacy (Enterobacter aerogenes): no
- Efficacy [5]: yes
- Efficacy (Proteus mirabilis): no
- Efficacy (Corynebacterium jeikeium): no
- Efficacy (Clostridium perfringens): no
- Efficacy (Francisella tularensis): no

Structure (SMILES): CC[C@H]1OC(=O)[C@H](C)[C@@H](O[C@H]2C[C@@](C)(OC)[C@@H](O)[C@H](C)O2)[C@H](C)[C@@H](O[C@@H]2O[C@H](C)C[C@H](N(C)C)[C@H]2O)[C@](C)(O)C[C@@H](C)CN(C)[C@H](C)[C@@H](O)[C@]1(C)O [Azithromycin]
- Efficacy [1]: no
- Efficacy (Enterococcus faecium): no
- Efficacy (Chlamydia psittaci): yes
- Efficacy (Clostridium difficile): no
- Efficacy (Pseudomonas aeruginosa): no
- Efficacy (Escherichia coli): no
- Efficacy (Enterobacter cloacae): no
- Efficacy (Mycoplasma pneumoniae): yes
- Efficacy (Enterobacter sakazakii): no
- Efficacy (Proteus vulgaris): no
- Efficacy (Bacteroides fragilis): no
- Efficacy (Legionella pneumophila): yes
- Efficacy (Bordetella pertussis): yes
- Efficacy (Providencia rettgeri): no
- Efficacy (Enterococcus faecalis): no
- Efficacy (Bartonella bacilliformis): yes
- Efficacy (Klebsiella pneumoniae): no
- Efficacy (Klebsiella oxytoca): no
- Efficacy (Haemophilus influenzae): yes
- Efficacy (Serratia marcescens): no
- Efficacy (Streptococcus pyogenes): yes
- Efficacy (Vibrio cholerae): yes
- Efficacy (Rickettsiae): yes
- Efficacy [2]: yes
- Efficacy (Acinetobacter lwoffii): no
- Efficacy (Citrobacter diversus): no
- Efficacy (Chlamydia pneumoniae): yes
- Efficacy [4]: no
- Efficacy (Brucella species): no
- Efficacy (Neisseria meningitidis): yes
- Efficacy (Campylobacter jejuni): yes
- Efficacy (Citrobacter freundii): no
- Efficacy (Pseudomonas fluorescens): no
- Efficacy (Morganella morganii): no
- Efficacy (Streptococcus pneumoniae): yes
- Efficacy (Moraxella catarrhalis): yes
- Efficacy (Acinetobacter baumannii): no
- Efficacy (Providencia stuartii): no
- Efficacy (Enterobacter aerogenes): no
- Efficacy [5]: no
- Efficacy (Proteus mirabilis): no
- Efficacy (Corynebacterium jeikeium): no
- Efficacy (Clostridium perfringens): no
- Efficacy (Francisella tularensis): no
- Efficacy (Chlamydia trachomatis): yes
- Efficacy (Streptococcus agalactiae): yes
- Efficacy [6]: yes
